Measurements: PubChem BioAssay AID1963843 (Molecular Pharmacology Branch, DTP, NCI, 2024)

Test system: 616215-338-R-J1-PDC complex spheroid viability
Test: Anticancer human tumor 616215-338-R-J1-PDC patient-derived colon adenocarcinoma cell line growth inhibition [POLQ]
Settings: for IC50: curve of first compound; for viability, T/C: stronger effect = lower value
Method in brief: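 PDC + HUVEC + MSC complex spheroids; POLQ inhibitors ± partner drugs; top conc. at/near clinical Cmax, else 10 microM (SN-38 1 microM), half-log dilutions; 37 degrees C, 5% CO2.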

[1] = second compound 0.0316 µM, first compound 0.00316 µM
[2] = second compound 0.0316 µM, first compound 0.01 µM
[3] = second compound 0.0316 µM, first compound 0.0316 µM
[4] = second compound 0.0316 µM, first compound 0.1 µM
[5] = second compound 0.0316 µM, first compound 0.316 µM
[6] = second compound 0.0316 µM, first compound 1 µM
[7] = second compound 0.1 µM, first compound 0.00316 µM
[8] = second compound 0.1 µM, first compound 0.01 µM
[9] = second compound 0.1 µM, first compound 0.0316 µM
[10] = second compound 0.1 µM, first compound 0.1 µM
[11] = second compound 0.1 µM, first compound 0.316 µM
[12] = second compound 0.1 µM, first compound 1 µM
[13] = second compound 0.316 µM, first compound 0.00316 µM
[14] = second compound 0.316 µM, first compound 0.01 µM
[15] = second compound 0.316 µM, first compound 0.0316 µM
[16] = second compound 0.316 µM, first compound 0.1 µM
[17] = second compound 0.316 µM, first compound 0.316 µM
[18] = second compound 0.316 µM, first compound 1 µM
[19] = second compound 1 µM, first compound 0.00316 µM
[20] = second compound 1 µM, first compound 0.01 µM
[21] = second compound 1 µM, first compound 0.0316 µM
[22] = second compound 1 µM, first compound 0.1 µM
[23] = second compound 1 µM, first compound 0.316 µM
[24] = second compound 1 µM, first compound 1 µM
[25] = second compound 3.16 µM, first compound 0.00316 µM
[26] = second compound 3.16 µM, first compound 0.01 µM
[27] = second compound 3.16 µM, first compound 0.0316 µM
[28] = second compound 3.16 µM, first compound 0.1 µM
[29] = second compound 3.16 µM, first compound 0.316 µM
[30] = second compound 3.16 µM, first compound 1 µM
[31] = second compound 10 µM, first compound 0.00316 µM
[32] = second compound 10 µM, first compound 0.01 µM
[33] = second compound 10 µM, first compound 0.0316 µM
[34] = second compound 10 µM, first compound 0.1 µM
[35] = second compound 10 µM, first compound 0.316 µM
[36] = second compound 10 µM, first compound 1 µM
[37] = second compound 0.0316 µM, first compound 3.16 µM
[38] = second compound 0.0316 µM, first compound 10 µM
[39] = second compound 0.1 µM, first compound 3.16 µM
[40] = second compound 0.1 µM, first compound 10 µM
[41] = second compound 0.316 µM, first compound 3.16 µM
[42] = second compound 0.316 µM, first compound 10 µM
[43] = second compound 1 µM, first compound 3.16 µM
[44] = second compound 1 µM, first compound 10 µM
[45] = second compound 3.16 µM, first compound 3.16 µM
[46] = second compound 3.16 µM, first compound 10 µM
[47] = second compound 10 µM, first compound 3.16 µM
[48] = second compound 10 µM, first compound 10 µM
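Note: spheroids exposed to compounds for one week before readout.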
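Throughout, for viability, T/C: percent viability relative to DMSO vehicle wells taken as 100%.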

## C=CCn1c(=O)c2cnc(Nc3ccc(N4CCN(C)CC4)cc3)nc2n1-c1cccc(C(C)(C)O)n1 + COC1C(OC(N)=O)C(O)C(Oc2ccc3c(O)c(NC(=O)c4ccc(O)c(CC=C(C)C)c4)c(=O)oc3c2C)OC1(C)C
Second compound 0.0316 µM
  IC50: > 1 µM
Second compound 0.1 µM
  IC50: > 1 µM
Second compound 0.316 µM
  IC50: > 1 µM
Second compound 1 µM
  IC50: > 1 µM
Second compound 3.16 µM
  IC50: > 1 µM
Second compound 10 µM
  IC50: > 1 µM
[1]
  viability, T/C: 102%
[2]
  viability, T/C: 97.8%
[3]
  viability, T/C: 97.2%
[4]
  viability, T/C: 113%
[5]
  viability, T/C: 97.8%
[6]
  viability, T/C: 91.8%
[7]
  viability, T/C: 105%
[8]
  viability, T/C: 101%
[9]
  viability, T/C: 89.2%
[10]
  viability, T/C: 103%
[11]
  viability, T/C: 95.3%
[12]
  viability, T/C: 55.8%
[13]
  viability, T/C: 94.3%
[14]
  viability, T/C: 106%
[15]
  viability, T/C: 101%
[16]
  viability, T/C: 97.8%
[17]
  viability, T/C: 95.2%
[18]
  viability, T/C: 59.4%
[19]
  viability, T/C: 105%
[20]
  viability, T/C: 94.5%
[21]
  viability, T/C: 101%
[22]
  viability, T/C: 103%
[23]
  viability, T/C: 90.7%
[24]
  viability, T/C: 61.5%
[25]
  viability, T/C: 93.8%
[26]
  viability, T/C: 104%
[27]
  viability, T/C: 100%
[28]
  viability, T/C: 98.2%
[29]
  viability, T/C: 93.9%
[30]
  viability, T/C: 61.4%
[31]
  viability, T/C: 105%
[32]
  viability, T/C: 100%
[33]
  viability, T/C: 98.3%
[34]
  viability, T/C: 103%
[35]
  viability, T/C: 87.7%
[36]
  viability, T/C: 67.3%

## CNCc1ccc(-c2[nH]c3cc(F)cc4c3c2CCNC4=O)cc1 + COC1C(OC(N)=O)C(O)C(Oc2ccc3c(O)c(NC(=O)c4ccc(O)c(CC=C(C)C)c4)c(=O)oc3c2C)OC1(C)C
Second compound 0.0316 µM
  IC50: > 10 µM
Second compound 0.1 µM
  IC50: > 10 µM
Second compound 0.316 µM
  IC50: > 10 µM
Second compound 1 µM
  IC50: > 10 µM
Second compound 3.16 µM
  IC50: > 10 µM
Second compound 10 µM
  IC50: > 10 µM
[3]
  viability, T/C: 98.7%
[4]
  viability, T/C: 99.8%
[5]
  viability, T/C: 106%
[6]
  viability, T/C: 111%
[37]
  viability, T/C: 107%
[38]
  viability, T/C: 93.3%
[9]
  viability, T/C: 102%
[10]
  viability, T/C: 102%
[11]
  viability, T/C: 98.7%
[12]
  viability, T/C: 99.5%
[39]
  viability, T/C: 101%
[40]
  viability, T/C: 83.9%
[15]
  viability, T/C: 107%
[16]
  viability, T/C: 113%
[17]
  viability, T/C: 115%
[18]
  viability, T/C: 105%
[41]
  viability, T/C: 105%
[42]
  viability, T/C: 83.2%
[21]
  viability, T/C: 105%
[22]
  viability, T/C: 106%
[23]
  viability, T/C: 101%
[24]
  viability, T/C: 102%
[43]
  viability, T/C: 109%
[44]
  viability, T/C: 76.2%
[27]
  viability, T/C: 106%
[28]
  viability, T/C: 101%
[29]
  viability, T/C: 106%
[30]
  viability, T/C: 109%
[45]
  viability, T/C: 117%
[46]
  viability, T/C: 58.9%
[33]
  viability, T/C: 109%
[34]
  viability, T/C: 101%
[35]
  viability, T/C: 97.6%
[36]
  viability, T/C: 104%
[47]
  viability, T/C: 105%
[48]
  viability, T/C: 55%

## COc1cccc(OCCCN)c1-c1cc(Nc2cnc(C#N)cn2)n[nH]1 + COC1C(OC(N)=O)C(O)C(Oc2ccc3c(O)c(NC(=O)c4ccc(O)c(CC=C(C)C)c4)c(=O)oc3c2C)OC1(C)C
Second compound 0.0316 µM
  IC50: > 1 µM
Second compound 0.1 µM
  IC50: > 1 µM
Second compound 0.316 µM
  IC50: > 1 µM
Second compound 1 µM
  IC50: > 1 µM
Second compound 3.16 µM
  IC50: > 1 µM
Second compound 10 µM
  IC50: 0.866 µM
[1]
  viability, T/C: 95.7%
[2]
  viability, T/C: 109%
[3]
  viability, T/C: 94.8%
[4]
  viability, T/C: 76.1%
[5]
  viability, T/C: 69.3%
[6]
  viability, T/C: 61%
[7]
  viability, T/C: 98.6%
[8]
  viability, T/C: 99.3%
[9]
  viability, T/C: 97.8%
[10]
  viability, T/C: 78.8%
[11]
  viability, T/C: 65.1%
[12]
  viability, T/C: 51.7%
[13]
  viability, T/C: 100%
[14]
  viability, T/C: 106%
[15]
  viability, T/C: 85.7%
[16]
  viability, T/C: 87.4%
[17]
  viability, T/C: 68%
[18]
  viability, T/C: 53.5%
[19]
  viability, T/C: 103%
[20]
  viability, T/C: 101%
[21]
  viability, T/C: 89.2%
[22]
  viability, T/C: 75.3%
[23]
  viability, T/C: 67.2%
[24]
  viability, T/C: 54.2%
[25]
  viability, T/C: 98.8%
[26]
  viability, T/C: 95.3%
[27]
  viability, T/C: 86.3%
[28]
  viability, T/C: 74.2%
[29]
  viability, T/C: 63.3%
[30]
  viability, T/C: 55.2%
[31]
  viability, T/C: 95.7%
[32]
  viability, T/C: 97%
[33]
  viability, T/C: 88.1%
[34]
  viability, T/C: 79.8%
[35]
  viability, T/C: 64.4%
[36]
  viability, T/C: 47.9%

## O=C(c1cc(Cc2n[nH]c(=O)c3ccccc23)ccc1F)N1CCN(C(=O)C2CC2)CC1 + COC1C(OC(N)=O)C(O)C(Oc2ccc3c(O)c(NC(=O)c4ccc(O)c(CC=C(C)C)c4)c(=O)oc3c2C)OC1(C)C
Second compound 0.0316 µM
  IC50: > 10 µM
Second compound 0.1 µM
  IC50: > 10 µM
Second compound 0.316 µM
  IC50: > 10 µM
Second compound 1 µM
  IC50: > 10 µM
Second compound 3.16 µM
  IC50: > 10 µM
Second compound 10 µM
  IC50: > 10 µM
[3]
  viability, T/C: 103%
[4]
  viability, T/C: 99.2%
[5]
  viability, T/C: 107%
[6]
  viability, T/C: 105%
[37]
  viability, T/C: 109%
[38]
  viability, T/C: 87.8%
[9]
  viability, T/C: 102%
[10]
  viability, T/C: 89%
[11]
  viability, T/C: 98.5%
[12]
  viability, T/C: 99.8%
[39]
  viability, T/C: 110%
[40]
  viability, T/C: 85.7%
[15]
  viability, T/C: 102%
[16]
  viability, T/C: 113%
[17]
  viability, T/C: 103%
[18]
  viability, T/C: 101%
[41]
  viability, T/C: 109%
[42]
  viability, T/C: 98.2%
[21]
  viability, T/C: 107%
[22]
  viability, T/C: 108%
[23]
  viability, T/C: 102%
[24]
  viability, T/C: 101%
[43]
  viability, T/C: 97%
[44]
  viability, T/C: 93.4%
[27]
  viability, T/C: 99.6%
[28]
  viability, T/C: 95%
[29]
  viability, T/C: 96.7%
[30]
  viability, T/C: 94.7%
[45]
  viability, T/C: 109%
[46]
  viability, T/C: 88.2%
[33]
  viability, T/C: 104%
[34]
  viability, T/C: 94%
[35]
  viability, T/C: 106%
[36]
  viability, T/C: 105%
[47]
  viability, T/C: 95.1%
[48]
  viability, T/C: 84.5%
